The results in this text go back to US20070173535A1, “Oxadiazoles having antiproliferative activity” (priority 2002, published 2007).

Assay [1] has as its system SNC. In words: NCI GI50 on tumor cells, SNC. In kind it is cell-based, human. Conditions: SNC cell lines; NA = inactive products. The procedure:
(§1) Biological assays were carried out at the National Cancer Institute according to known experimental protocols [(a) Monks A., Scudiero D., Skehan P., Shoemaker R., Paull K., Vistica D., Hose C., Langley J., Cronise P., Vaigro-Wolff A., Gray-Goodrich M., Campbell H., Mayo J., Boyd M., J. Natl. Cancer Inst., 83, 757-766 (1991). (b) Paull K. D., Shoemaker R. H., Hods L., Monks A., Scudiero D. A., Rubinstein L., Plowman J., Boyd M. R., J. Natl. Cancer Inst., 81, 1088-1092 (1989). (c) Boyd M. R., Paull K. D., Rubinstein L. R., Cytotoxic Anticancer Drugs: Models and Concept for Drug discovery, Valeriote F. A., Corbett T., Baker L., Eds., Kluwer Academic Publishers: Amsterdam, 1992, pp. 11].

In assay [2] the test system is Breast. In words: NCI GI50 on tumor cells, breast. In kind it is cell-based, human. The note with it: Breast cell lines; NA = inactive products. The procedure:
as §1

The subject of assay [3] is Colon. In words: NCI GI50 on tumor cells, colon. The note with it: Colon cell lines; NA = inactive products. The format is cell-based, human. How it is done: as §1
In assay [4] the test system is Ovary. In words: NCI GI50 on tumor cells, ovary. In kind it is cell-based, human. The note with it: Ovary cell lines; NA = inactive products. The procedure:
as §1

Assay [5] relates to Leukemia. The assay can be described thus: NCI GI50 on tumor cells, leukemia. The format is cell-based, human. Conditions: Leukemia cell lines; NA = inactive products. How it is done: as §1
Assay [6] concerns Melanoma. The assay can be described thus: NCI GI50 on tumor cells, melanoma. The format is cell-based, human. The note with it: Melanoma cell lines; NA = inactive products. How it is done:
as §1

The subject of assay [7] is 60 human tumor cell lines. In words: NCI primary screening on 60 human tumor cell lines, mean over various tumor cells. In kind it is cell-based. Conditions: for GI50 Mean: mean over the tumor cell panels, NA = inactive products; for antiproliferative activity: in words, in both cases (three-cell-line preliminary tests and various tumor cells). How it is done:
The cytotoxic activity of compounds (I) was evidenced in primary screening studies on 60 human tumor cell lines.
as §1

The test system of assay [8] is Kidney. The assay can be described thus: NCI GI50 on tumor cells, kidney. In kind it is cell-based, human. The note with it: Kidney cell lines; NA = inactive products. The procedure:
as §1

The subject of assay [9] is Microcitoma. The assay can be described thus: NCI GI50 on tumor cells, microcitoma. In kind it is cell-based, human. The note with it: Microcitoma cell lines; NA = inactive products. How it is done:
as §1

Assay [10] concerns MCF7 breast, NCI-H460 microcitoma and SF-268 SNC. The assay can be described thus: NCI preliminary tests on three cell lines, mean GI50. The format is cell-based, human. The note with it: mean concentration causing 50% inhibition of cell growth; N.A. = inactive in preliminary tests on three cell lines. How it is done:
as §1
Table 1 reports the GI50, namely the mean concentration (μM) of substance which causes a 50% inhibition on the cell growth in preliminary tests carried out on three cell lines (MCF7 breast, NCI-H460 microcitoma and SF-268 SNC).

Assay [11] has as its system Prostate. In words: NCI GI50 on tumor cells, prostate. The note with it: Prostate cell lines; NA = inactive products. In kind it is cell-based, human. How it is done:
as §1

Consider `c1ccc2c(c1)Cc1c(-c3nnco3)c[nH]c1-2` [Ia, 3-[[1,3,4]Oxadiazol-2′-yl]-1,4-dihydro-indeno[1,2-b]pyrrole], for which the GI50 in [1] amounted to 86.7 µM; in assay [2], 73.2 µM; in assay [3], 81.2 µM; in assay [4], 81.2 µM; in assay [5] it was 79.7 µM; in assay [6], 77.3 µM. Besides, the concentration for 50% growth inhibition (GI50) came to 67.3 µM in assay [8] and 57.8 µM in assay [9]. In assay [7], the “GI50 Mean” value worked out at 74.1 µM. Also, the “GI50 μM) Mean” value in assay [10] is 74.1 µM.
Consider `Cc1nnc(-c2c[nH]c3c2Cc2ccccc2-3)o1` [Ib, 3-[[1,3,4]oxadiazole-5′-methyl-2′-yl]-1,4-dihydro-indeno[1,2-b]pyrrole], for which the 50% growth inhibitory concentration (GI50) in assay [1] is 75.8 µM; in assay [2] it was 77.6 µM; in [4], 30.2 µM; in [5], 81.3 µM; in assay [6], 79.4 µM; in assay [8] it was 91.2 µM. This compound showed a concentration for 50% growth inhibition (GI50) in [9] of 93.3 µM. Moreover, the “GI50 Mean” value in assay [7] was found to be 75.8 µM. Further, in [10], the “GI50 μM) Mean” value worked out at 75.8 µM.
`c1ccc(-c2nnc(-c3c[nH]c4c3Cc3ccccc3-4)o2)cc1` [Ic, 3-[[1,3,4]oxadiazole-5′-phenyl-2′-yl]-1,4-dihydro-indeno[1,2-b]pyrrole]: the concentration for 50% growth inhibition (GI50) came to 2.95 µM in [1]; 3.16 µM in [2]; 1 µM in assay [3]; 4.57 µM in assay [4]; 1.82 µM in [5]; 2.34 µM in assay [6]. Also, the figures for the GI50 in assay [8], in assay [9] and in [11] were 6.31 µM, 3.39 µM and 4.78 µM, respectively. Besides, the antiproliferative activity result in [7] is listed as “significant antiproliferative activity”. Moreover, the “GI50 Mean” value in [7] came out at 2.9 µM. For the same compound, the “GI50 μM) Mean” value in [10] is 2.9 µM.
`c1ccc2c(c1)CCc1c(-c3nnco3)c[nH]c1-2` [Ie, 3-[[1,3,4]oxadiazol-2′-yl]-4,5-dihydro-1H-benzo[g]indole]: the 50% growth inhibitory concentration (GI50) turned out to be 28.2 µM in [1]; 27.5 µM in [2]; 25.7 µM in assay [3]; 28.2 µM in [4]; 26.3 µM in assay [5]; 28.8 µM in [6]. The concentration for 50% growth inhibition (GI50) in assay [8] amounted to 27.5 µM; in assay [9] it was 21.8 µM; in assay [11], 32.3 µM. For the same compound, the “GI50 Mean” value in [7] amounted to 26.3 µM. In addition, the “GI50 μM) Mean” value in assay [10] was 26.6 µM.
Turning to `c1ccc2c(c1)ccc1c(-c3nnco3)c[nH]c12` [Ih, 3-[[1,3,4]oxadiazol-2′-yl]-1H-benzo[g]indole], the GI50 in assay [1] is 32.3 µM; in [2], 40 µM; in [3], 33.8 µM; in [4] it was 38.9 µM; in assay [5], 44.6 µM; in [6] it was 33.8 µM. In addition, the GI50 was found to be 38 µM in assay [8], 22.3 µM in assay [9] and 62.3 µM in assay [11]. Further, the “GI50 Mean” value in assay [7] was found to be 35.4 µM. Besides, the “GI50 μM) Mean” value in assay [10] is 35.4 µM.
On to `c1ccc(-c2nnc(-c3c[nH]c4c3ccc3ccccc34)o2)cc1` [Il, 3-[[1,3,4]oxadiazole-5′-phenyl-2′-yl]-1H-benzo[g]indole], for which the GI50 is 1.21 µM in assay [1]; 0.6 µM in assay [2]; 0.7 µM in assay [3]; 1.7 µM in assay [4]; 0.64 µM in assay [5]; 2.71 µM in assay [6]. Further, the GI50 in [8] amounted to 2.04 µM; in [9] it was 2.36 µM; in [11], 1.28 µM. In addition, the antiproliferative activity result in assay [7] is on record as “significant antiproliferative activity”. Moreover, the “GI50 Mean” value in assay [7] was determined as 1.28 µM. The “GI50 μM) Mean” value in assay [10] was found to be 1.28 µM.
Regarding `Cn1cc(-c2nnco2)c2ccc3ccccc3c21` [Im, 1-methyl-3-[[1,3,4]oxadiazol-2′-yl]-1H-benzo[g]indole], the GI50 in assay [1] was determined as 23.9 µM; in assay [2], 44.6 µM; in assay [3] it was 38.9 µM; in assay [4], 41.6 µM; in [5] it was 54.9 µM; in [6] it was 43.6 µM. The results for the concentration for 50% growth inhibition (GI50) in assay [8], in [9] and in [11] were 20.8 µM, 17.7 µM and 54.9 µM, respectively. The “GI50 Mean” value in assay [7] was 33.1 µM. Further, in assay [10], the “GI50 μM) Mean” value turned out to be 33.1 µM.

Broadly, the GI50 is the concentration at which growth is held to half of that of the control.
